Measurements taken from patent publication US9561249B2, “Pharmaceutical formulations of nitrite and uses thereof” (TheraVasc Inc., priority 2013, dated 2017).
Read-outs that look alike come from different tables or passages of the source.

Columns and labels:
subjects with PAD [1] = test system: subjects with PAD
From the text: An individual subject was withdrawn at the discretion of the responsible investigator and the site study team for the reasons listed below as well as for other safety reasons that may not be listed. In the event one or more subjects were withdrawn, additional subjects were enrolled to ensure an adequate number of subjects complete the cohort. Specific reasons for an individual subject to withdraw included but was not limited to: • Subjects with a pattern of severe adverse events in any SOC, or cardiac monitoring findings as determined by the investigator and/or the sponsor. • Subjects with methemoglobin value 15% on any one occasion during study participation. • Subjects with normal baseline blood pressure who experienced any of the following: an increase in blood pressure to 160 mm Hg systolic and/or 90 mmHg diastolic that persists over 24 hours, an increase from baseline blood pressure of 30 mm Hg systolic and/or 15 mm Hg diastolic that persists over 24 hours, any symptomatic increase in blood pressure. • Subjects with stable elevated blood pressure at baseline who experienced any of the following: an increase in blood pressure to 180 mm Hg systolic and/or 100 mmHg diastolic that persists over 24 hours, an increase from baseline blood pressure of 20 mm Hg systolic and/or 10 mm Hg diastolic that persists over 24 hours, any symptomatic increase in blood pressure. • Subjects who experienced a decrease from baseline blood pressure of 20 mm Hg systolic with or without an increase of 10 beats per minute (BPM) pulse and the presence of symptoms.
The withdrawal criteria allowed a subject to withdraw from the study at any time at his/her own request. The subject may also have been withdrawn at the Investigator's request if it was the Investigator's opinion that it was not in the subject's best interest to continue in the study. The subject was withdrawn if he or she met stopping criteria described above. In the event a subject was withdrawn from the study for any reason, the subject was followed-up with reasonable effort made to determine the reason for their withdrawal from the study and an ET visit as described above. Telephone calls, certified letters and offers of transportation assistance were considered reasonable effort.

subjects with PAD [2] = conditions: even at the 160 mg dose escalation
Method: The following safety parameters were assessed: medical and medication history, concomitant medication usage, physical examination, vital signs, 12-lead ECG, clinical chemistries, CBC, urinalysis, and adverse events. Urine pregnancy testing was completed for women of child-bearing potential who have not been surgically sterilized. Assessment of acute adverse events (i.e., drop in blood pressure, dizziness) was performed after administration of 1st dose for each dose level of sodium nitrite. Dose-limiting toxicity (DLT) was defined as Grade 3 and clinically significant hematological events, particularly MetHb.

For `O=NO` [sodium nitrite], the “Subjects who completed the study” value (subjects with PAD [1]; 40 mg, n = 19) was 17 (89.5%), the “Subjects who withdrew prior to completion” value (subjects with PAD [1]; 40 mg, n = 19) was 2 (10.5%) and the “Withdrawal: Adverse Event” value (subjects with PAD [1]; 40 mg, n = 19) was 1 (5.3%). The “Withdrawal: Met withdrawal-new hypotension” value (subjects with PAD [1]; 40 mg, n = 19) was 0 (0.0%), the “Withdrawal: Subject Request-lack of energy” value (subjects with PAD [1]; 40 mg, n = 19) was 1 (5.3%) and the “Withdrawal: Subject request- no benefit” value (subjects with PAD [1]; 40 mg, n = 19) was 0 (0.0%). For the same molecule, the “Withdrawal: Subject request-refused to continue” value (subjects with PAD [1]; 40 mg, n = 19) was 0 (0.0%), the “Subjects who completed the study” value (subjects with PAD [1]; 80 mg, n = 18) was 15 (83.3%) and the “Subjects who withdrew prior to completion” value (subjects with PAD [1]; 80 mg, n = 18) was 3 (16.7%). For the same molecule, the “Withdrawal: Adverse Event” value (subjects with PAD [1]; 80 mg, n = 18) was 2 (11.1%), the “Withdrawal: Met withdrawal-new hypotension” value (subjects with PAD [1]; 80 mg, n = 18) was 1 (5.6%) and the “Withdrawal: Subject Request-lack of energy” value (subjects with PAD [1]; 80 mg, n = 18) was 0 (0.0%). The “Withdrawal: Subject request- no benefit” value (subjects with PAD [1]; 80 mg, n = 18) was 0 (0.0%), the “Withdrawal: Subject request-refused to continue” value (subjects with PAD [1]; 80 mg, n = 18) was 0 (0.0%) and the Methemoglobin levels (subjects with PAD [2]) was “of no concern”.
